Results: US6447997B1, “Gene coding for GADD153 as a clinical diagnostic and prognostic in cancer therapy” (Research Development Foundation, priority 1997, dated 2002)

Test system: GADD153 mRNA
Test: GADD153 mRNA level in UMSCC10b xenografts in nude mice after cDDP
Assay type: in vivo
Experimental: The various aspects of the invention are also useful for xenografted tumors. Nude mice were inoculated s.c. with human UMSCC10b tumor cells, and then treated with cDDP (0, 10, 15, 30 or 50 mg/kg cDDP i.p.) when the tumors reached 1 ml in volume. FIG. 5a depicts the results obtained when tumors were harvested at 24 h after cDDP treatment. […] The time course of the change in message level in the xenografts was similar to that observed with in vitro exposure of the cells (FIG. 5b). Thus, GADD153 mRNA levels can be increased in vivo by cDDP doses around the maximum tolerated dose in this system (15-20 mg/kg cDDP).
UMSCC10b cells were injected subcutaneously over the shoulder of athymic (BALB/c nu/nu) female mice, 3-4 weeks of age (Harlan Sprague Dawley, Indianapolis, Ind.). The xenografts were allowed to grow until they reached approximately […] in volume, at which time cDDP treatment was initiated. […]
GADD153 message levels were quantified using a modification of the technique reported by Horikoshi et al (20). […] PCR products were separated on a 8 M (6%) acrylamide gel and analyzed using a Molecular Imaging System (BioRad, Hercules, Calif.). For each RNA sample to be analyzed, a series of PCR reactions was performed to generate a graph of the amount of PCR product as a function of input CDNA for both GADD153 and β-ACTIN. […]

[NH2][Pt]([NH2])([Cl])[Cl] [cDDP, cisplatin]
time of return of GADD153 mRNA toward basal levels in vivo (UMSCC10b xenografts after treatment): ≤ 96 h
GADD153 mRNA levels in xenografts (tumors harvested 24 h after cDDP i.p., 0-50 mg/kg): increased as a function of cDDP dose
